# Test results reported in patent US8507488B2, “Fused nitrogen containing heterocycles and compositions thereof as kinase inhibitors” (IRM LLC, priority 2008, dated 2013).
# Read-outs that look alike come from different tables or passages of the source.
# Experiments:
# [1] = target: T1, full length rTrkA and mNGF (Rattus norvegicus, UniProt P35739); experiment: Inhibition of proliferation of Ba/F3 cells co-expressing full length rTrkA and mNGF (BaF3/TrkA-NFG); type: cell-based; details: BaF3 TRKA-NGF cells, CTG readout
# T1 construct: co-expressing full length rTrkA and mNGF; expressed in transfected cells; host or cells: Ba/F3 cells
# T1 sequence (P35739 33-799): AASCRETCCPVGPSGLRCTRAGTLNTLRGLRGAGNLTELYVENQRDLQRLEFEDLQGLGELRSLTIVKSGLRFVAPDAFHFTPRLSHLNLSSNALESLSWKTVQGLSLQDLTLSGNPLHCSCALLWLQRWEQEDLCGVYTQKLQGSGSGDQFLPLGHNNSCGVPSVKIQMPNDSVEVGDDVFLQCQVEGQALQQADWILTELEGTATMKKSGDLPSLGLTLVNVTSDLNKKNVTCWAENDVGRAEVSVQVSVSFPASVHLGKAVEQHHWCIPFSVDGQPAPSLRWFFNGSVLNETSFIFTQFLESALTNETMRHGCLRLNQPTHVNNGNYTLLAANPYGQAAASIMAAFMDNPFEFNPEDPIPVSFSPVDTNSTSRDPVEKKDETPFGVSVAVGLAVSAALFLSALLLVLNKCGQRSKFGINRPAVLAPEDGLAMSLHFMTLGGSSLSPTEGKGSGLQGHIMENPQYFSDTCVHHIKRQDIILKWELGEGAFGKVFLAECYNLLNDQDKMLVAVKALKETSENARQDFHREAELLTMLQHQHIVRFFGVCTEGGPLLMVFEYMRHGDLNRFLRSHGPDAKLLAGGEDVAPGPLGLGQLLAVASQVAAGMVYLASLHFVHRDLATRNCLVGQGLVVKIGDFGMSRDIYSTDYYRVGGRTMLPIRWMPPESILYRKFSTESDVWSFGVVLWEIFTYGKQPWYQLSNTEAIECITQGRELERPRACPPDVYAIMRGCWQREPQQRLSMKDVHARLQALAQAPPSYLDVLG
# T1 sequence (P01139 122-241 partner): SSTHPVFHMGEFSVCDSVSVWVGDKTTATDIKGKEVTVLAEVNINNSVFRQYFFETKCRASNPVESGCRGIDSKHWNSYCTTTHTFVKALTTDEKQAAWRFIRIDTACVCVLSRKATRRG
# parental BaF3 cells = experiment: Proliferation of parental (untransformed) Ba/F3 cells maintained with IL3; type: cell-based, murine; details: read-out: Ba/F3 IC 50
# Experimental: (§1) Test compounds were dissolved in DMSO (10 mM) and transferred into 1.4 mL flat bottom or V-shaped Matrix tubes carrying a unique 2D matrix chip by individual compound hubs. The numbers of these chips were distinctively linked to the individual compound identification numbers. The stock solutions were stored at −20° C. if not used immediately. For the test procedure the vials were defrosted and identified by a scanner whereby a working sheet is generated that guides the subsequent working steps.
# (§2) Compound dilutions were made in 384 well plates. This format enabled the assay of maximally 28 individual test compounds at 12 concentrations (single points) including 2 reference compounds. The dilution protocol included the production of pre-dilution plates, master plates and assay plates: • Compound plates: 30 μL of individual compound (10 mM) DMSO solution including standard compound were transferred into columns 1 and 13 of a 384 well plate. 20 μL of DMSO were added to the rest of the wells and the compounds were serially diluted (1:3) by transferring 10 μL from a well in column 1 or 13 to the next well in column 2 or 14 respectively and successively with the help of a Minitrack robot. • Assay plates: Identical assay plates were then prepared by adding […] each of compound dilutions of the compound plates into 384-well “assay plates”. In the following the compounds were mixed with 50 μL of assays components (cells or enzyme) and tested for their inhibitory activity.
# (§3) The cell line used is the luciferase expressing Ba/F3 murine hematopoietic progenitor cell line transformed with human Tel-TrkA, Tel-TrkB or Tel-TrkC cDNAs (Ba/F3 EN A/B/C). These cells maintained in RPMI/10% fetal bovine serum (RPMI/FCS) supplemented with penicillin 50 mg/mL, streptomycin 50 mg/mL and L-glutamine […]. Untransformed Ba/F3 cells were similarly maintained with the addition 5 ng/ml of murine recombinant IL3. 50 μl of a Ba/F3 or Ba/F3 EN A/B/C cell suspension were plated in Greiner 384 well microplates (white)) at a density of 2000 cells per well. 50 nl of serially diluted test compound (10-0.0001 mM in DMSO solution) is added to each well. The cells were incubated for 48 hours at 37° C., 5% CO2. 25 μl of Bright Glo® (Promega) luciferase substrate is added to each well. The emited luminiscence is quantified using the ACQUEST™ luminescence system (Molecular Devices). IC50 values were calculated by linear regression analysis of the percentage inhibition of each compound at 12 concentrations.
# Tel-TrkB = target: T2, Tel-TrkB (Homo sapiens, UniProt Q16620); experiment: Inhibition of proliferation of Ba/F3 cells expressing Tel-TrkB (BaF3/Tel-TrkB); type: cell-based; details: Ba/F3 Tel-TrkB cells; read-out: Ba/F3 Tel-TrkB IC 50
# T2 construct: dimerization domain of Tel (ETV6) transcription factor (fusion partner, human ETV6 P41212); expressed in transfected cells; host or cells: luciferase expressing Ba/F3 murine hematopoietic progenitor cells; the other entry of the earlier key: ETV6 (P41212, Transcription factor ETV6)
# T2 sequence (Q16620 538-822 limits assumed): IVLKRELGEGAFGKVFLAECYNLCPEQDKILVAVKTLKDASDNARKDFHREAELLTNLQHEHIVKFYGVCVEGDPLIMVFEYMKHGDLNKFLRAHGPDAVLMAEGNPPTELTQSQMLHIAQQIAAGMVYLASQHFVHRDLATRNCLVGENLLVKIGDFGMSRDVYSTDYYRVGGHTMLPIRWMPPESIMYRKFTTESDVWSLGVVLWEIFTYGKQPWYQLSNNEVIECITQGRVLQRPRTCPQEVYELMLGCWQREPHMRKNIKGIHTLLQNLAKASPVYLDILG
# Experimental: as §1, §2
# (§4) Compounds of Formula (I) were tested for their antiproliferative effect on Ba/F3 cells expressing either Tel-TrkA, Tel-TrkB or Tel-TrkC and an additional panel of 34 selected diverse kinases activated by fusion to the dimerizing partners Bcr or Tel (Abl, A1K, BMX, EphA3, EphB2, FGFR2, FGFR3, FGFR4, FGR, FLT1, FLT3, FLT4, FMS, IGF1R, InsR, JAK1, JAK2, JAK3, KDR, Kit, Lck, Lyn, MER, MET, PDGFRb, RET, RON, Ros-1, Src, Aurora, TIE2, TYK2, Tie1, ZAP70). The antiproliferative effect of these compounds on the different cell lines and on the non transformed cells were tested at 12 different concentrations of 3-fold serially diluted compounds in 384 well plates as described above (in media lacking IL3). The IC50 values of the compounds the different cell lines were determined from dose response curves.
# as §3, with “50 nl of serially diluted test compound (10-0.0001 mM in DMSO solution) is added to each well.” left out
# Tel-TrkA = target: T3, Tel-TrkA (Homo sapiens, UniProt P04629); experiment: Inhibition of proliferation of Ba/F3 cells expressing Tel-TrkA (BaF3/Tel-TrkA, luciferase/Bright Glo readout); type: cell-based; details: read-out: Ba/F3 Tel-TrkA IC 50
# T3 construct: dimerization domain of Tel (ETV6) transcription factor (fusion partner, human ETV6 P41212); expressed in transfected cells; host or cells: luciferase expressing Ba/F3 murine hematopoietic progenitor cells; the other entry of the earlier key: ETV6 (P41212, Transcription factor ETV6)
# T3 sequence (P04629 510-796 limits assumed): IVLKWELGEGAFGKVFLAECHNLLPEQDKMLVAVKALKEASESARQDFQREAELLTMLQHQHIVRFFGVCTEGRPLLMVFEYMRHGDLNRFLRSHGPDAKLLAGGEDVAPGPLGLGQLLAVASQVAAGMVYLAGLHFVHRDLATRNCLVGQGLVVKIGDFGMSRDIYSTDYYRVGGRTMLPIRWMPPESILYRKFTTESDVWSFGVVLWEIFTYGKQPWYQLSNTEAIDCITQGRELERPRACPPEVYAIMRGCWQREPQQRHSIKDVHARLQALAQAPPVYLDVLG
# Experimental: as §1, §2, §4
# as §3, with “50 nl of serially diluted test compound (10-0.0001 mM in DMSO solution) is added to each well.” left out
# [2] = Mus musculus, BaF3, parental Ba/F3 cells
Structure (SMILES),BaF3 TRKA-NGF CTG IC 50 [1] [nM],IC50 (parental BaF3 cells; [2]) [nM],IC50 (Tel-TrkB) [nM],IC50 (Tel-TrkA) [nM],IC50 (parental BaF3 cells; parental Ba/F3 cells) [nM]
Cc1c[nH]c(C2CCN(c3cccc(-c4cnc5ccc(N6CCOCC6c6cccc(F)c6)nn45)n3)CC2)n1 (centres unmarked) [Table 7-Compound 143],31,> 11000,53,34,
CC(C)NC(=O)CN1CCN(c2cccc(-c3cnc4ccc(N5CCCC5c5cccc(F)c5)nn34)n2)CC1 (centres unmarked) [Table 7-Compound 96],3,5990,2,1,
OCCC1CCN(c2cccc(-c3cnc4ccc(N5CCOCC5c5cccc(F)c5)nn34)n2)CC1 (centres unmarked) [Table 2-Compound 23],12,> 10000,24,10,
CC(C)(C)OC(=O)N1CCC(Oc2ncc(-c3cnc4ccc(N5CCCC5c5cccc(F)c5)nn34)cn2)CC1 (centres unmarked) [Table 7-Compound 176],886,2750,971,1120,
O=C(COCc1ccccc1)N1CCN(c2cccc(-c3cnc4ccc(N5CCC[C@@H]5c5cccc(F)c5)nn34)n2)CC1 [Table 7-Compound 191],16,> 9560,12,14,
CNC1CCN(c2cc(-c3cccc(-c4cnc5ccc(N6CCCC6c6cccc(F)c6)nn45)n3)ccn2)CC1 (centres unmarked) [Table 7-Compound 249],130,6380,147,144,
CC(C)NC(=O)CN1CCN(c2cccc(-c3cnc4ccc(N5CCCC5c5cccc(F)c5)nn34)n2)CC1 (centres unmarked) [Table 4-Compound 32],2.6,,1.5,1.4,4990
COc1ncc(-c2cnc3ccc(N4CCCC4c4cccc(F)c4)nn23)s1 (centres unmarked) [Table 3-Compound 27],320,> 10000,93,140,
OC1CCN(c2cncc(-c3cnc4ccc(N5CCCC5c5cccc(F)c5)nn34)n2)CC1 (centres unmarked) [Table 7-Compound 121],4.88,> 10000,3.02,3.34,
CN1CCC(N2CCN(c3cccc(-c4cnc5ccc(N6CCOCC6c6cccc(F)c6)nn45)n3)CC2)CC1 (centres unmarked) [Table 7-Compound 8],6.1,1570,8.8,8.2,
O=C(NOCC1CC1)C1CCN(c2cccc(-c3cnc4ccc(N5CCOCC5c5cccc(F)c5)nn34)n2)CC1 (centres unmarked) [Table 7-Compound 22],35,> 10000,23,43,
O=C(Nc1cnc(-c2cnc3ccc(N4CCCC4c4cccc(F)c4)nn23)cn1)C1CC1 (centres unmarked) [Table 3-Compound 41],110,200,210,200,
Fc1ccc(F)c(C2CCCN2c2ccc3ncn(-c4cccc(-c5ncc[nH]5)c4)c3n2)c1 (centres unmarked) [Table 1-Compound 4],,,790,1600,
